One data set in a line: pKa of amino lipid. In kind it is physicochemical.
A short description of data set [1]: Assessment of antisense encapsulation (encapsulation efficiency, drug:lipid ratio). The class given is physicochemical. The method, then:
drug to lipid ratio: The amount of drug (therapeutic agent) in a defined volume of preparation divided by the amount of lipid in the same volume. This may be on a mole per mole basis or on a weight per weight basis, or on a weight per mole basis. For final, administration-ready formulations, the drug:lipid ratio is calculated after dialysis, chromatography and/or enzyme (e.g., nuclease) digestion has been employed to remove as much of the external therapeutic agent (e.g., nucleic acid) as possible.
encapsulation efficiency: the drug to lipid ratio of the starting mixture divided by the drug to lipid ratio of the final, administration competent formulation. This is a measure of relative efficiency. For a measure of absolute efficiency, the total amount of therapeutic agent (nucleic acid) added to the starting mixture that ends up in the administration competent formulation, can also be calculated. The amount of lipid lost during the formulation process may also be calculated. […]
Antisense encapsulation was typically assessed by dual label ([^3H]-antisense and [^14C]-lipid) liquid scintillation counting after gel filtration chromatography to separate the free and encapsulated antisense. Antisense encapsulation was evaluated by summing the total [^3H]-antisense radioactivity associated with the lipid peak and dividing by the total [^3H]-antisense radioactivity. […]

For a further data set, the system named is ICAM-1 gene. Put plainly: Ear inflammation model (DNFB contact sensitivity). In kind it is in vivo, ICR mice. To be noted: lipid-encapsulated antisense, i.v. 20-30 mg/kg 15 min after DNFB, 24 hours. The method, then: Mice were sensitized by applying 25 μL of 0.5% 2,4-dinitro-1-fluorobenzene (DNFB) in acetone: olive oil (4:1) to the shaved abdominal wall for two consecutive days. Four days after the second application, mice were challenged on the dorsal surface of the left ear with 10 μL of 0.2% DNFB in acetone:olive oil (4:1). Mice received no treatment on the contralateral (right) ear. In some cases, control mice received 10 μL of vehicle on the dorsal surface of the left ear.
Ear thickness was measured immediately prior to ear challenge, and at various time intervals after DNFB challenge, using an engineer's micrometer (Mitutoyo, Tokyo, Japan). Increases in ear thickness measurements were determined by subtracting the pre-challenge from post-challenge measurements.
Inflamed mice were treated at the time of ear challenge with a 30 mg/kg i.v. dose of either HBS (no oligo), EPC:CHOL liposomes with entrapped PS-3082 (identified as AS 1000), POPC:CHOL:DODAP:PEG-CerC14 with entrapped PS-3082 (identified as AS 4100), or DSPC:CHOL:DODAP:PEG-CerC14 with entrapped PS-3082 (identified as AS 4200). Ear swelling was measured at 24 hours after initiating inflammation using an engineer's micrometer.
Antisense Sample Preparation: Antisense was encapsulated using the standard methods of Examples 5-9, using the phosphodiester modification. […]

The subject of data set [2] is MDA-MB-453 human breast carcinoma. Description: Tumor window model, human breast tumor. The class given is in vivo, mouse. The note with it: i.v. 10 mg/kg/administration, 3 administrations/week. The source says: The human breast carcinoma line MDA-MB-453 was implanted in a mouse tumor window model according to the method of Wu, N. Z., Da, D., Rudoll, T. L., Needham, D., Whorton, R. & Dewhirst, M. W. 1993. Increased microvascular permeability contributes to preferential accumulation of Stealth liposomes in tumor tissue. Cancer Research 53: 3765-3770; and Dewhirst, M. W., Tso, C. Y., Oliver, R., Gustafson, C. S., Secomb, T. W. & Gross, J. F. 1989. Morpholigic and hemodynamic comparison of tumor and healing normal tissue microvasculature. Int. J. Radiat. Oncol. Biol. Phys. 17: 91-99. See also Dewhirst, M W., and Needham, D. 1995. Extravasation of Stealth Liposomes into Tumors: Direct Measurement of Accumulation and Vascular Permeability using a Skin Flap Window Chamber. In Stealth Liposomes (Eds. Lasic, D. and Martin, F.) CRC Press.
In vivo efficacy evaluation: When the tumor in the window has reached a diameter of 2-3 mm, treatment with free or TCS-encapsulated US3 oligonucleotide is initiated. Treatment consists of a 200 ul intravenous administration (tail vein) of either free US3 or TCS-encapsulated US3 on a 3 administrations/week schedule and an antisense dose of 10 mg/kg/administration. Tumor size is monitored 3 times per week by microscopy.

As for `CCCCCCCC/C=C\CCCCCCCC(=O)OCC(CN(C)C)OC(=O)CCCCCCC/C=C\CCCCCCCC` (stereo not drawn) [DODAP, 1,2-dioleoyloxy-3-dimethylaminopropane], the pKa (as a rule, the negative logarithm of the acid dissociation constant) in the data set “pKa of amino lipid” turned out to be 6.53.
In the case of “PO-2302: human ICAM-1 phosphodiester antisense GCCCAAGCTGGCATCCGTCA (SEQ ID No 2) (DNA, all phosphodiester, methylation of C not given here)”, the “final (administration ready) drug:lipid ratios” value in data set [1] (citrate varied, DSPC:CHOL:DODAP:PEG-CerC14 25:45:20:10) was “greater than 10 % by weight”.
On to “PO-3082: murine ICAM-1 phosphodiester antisense TGCATCCCCCAGGCCACCAT (SEQ ID No 1) (DNA, all phosphodiester, methylation of C not given here)”, for which, in the data set on ICAM-1 gene, the “reduction of the degree of inflammation” value is approximately 85%.
On the same count and under the same terms, under “PS-3082: murine ICAM-1 phosphorothioate antisense TGCATCCCCCAGGCCACCAT (SEQ ID No 1) (DNA, all phosphorothioate, methylation of C not given here)” stands “around 70%”.
“US3: anti-human erb-B-2 antisense GGT GCT CAC TGC GGC (SEQ ID No 3) (antisense GGTGCTCACTGCGGC; all phosphorothioate, sugars by position and methylation of C not given here)”: the “effect on tumor growth” value in data set [2] is listed as “ineffective at inhibiting tumor growth”.
On to “VEGF-R1: human VEGF-R 1 ribozyme GAGUUGCUGAUGAGGCCGAAAGGCCGAAAGUCUG (SEQ ID No 16) (GAGUUGCUGAUGAGGCCGAAAGGCCGAAAGUCUG; chemistry not fully specified)”, for which the encapsulation efficiency result in data set [1] (20 mM citrate, FIG. 20) was “over 50%”.

Source of the values: patent US8021686B2, “Lipid-encapsulated polyanionic nucleic acid” (The University of British Columbia, priority 1997, dated 2011).
